In patent US20240300913A1, “FLAVONE DERIVATIVE AND USE THEREOF FOR IMPROVING PULMONARY FIBROSIS” (A-CHEMBIO CO., LTD, priority 2023, published 2024):

Experiments:
[1] = test system: A549 cells; assay: Effect of bleomycin treatment on A549 cells (western blot of protein levels); type: cell-based; conditions: BLM and/or compound, 3, 24, and 48 hours
Procedure: A549 cells, derived from lung cancer, were incubated at different cell numbers depending on the sample treatment time. 4.5×10^5 cells (30 minutes to 12 hours), 4.0×10^5 cells (24 hours), and 3.5×10^5 cells (48 hours) were suspended in the respective media, dispensed into a 60-mm plate, and incubated for 24 hours. After 24 hours, each plate was treated with bleomycin (BLM) alone or in combination with novel flavone derivative I at a predetermined concentration. After a predetermined period of incubation, the cells were lysed with RIPA lysis buffer ([50 mM Tris]-Cl (pH, 7.4), 1% NP-40, 150 mM NaCl, 1 mM EDTA, and 1 mM phenylmethylsulfonyl fluoride (PMSF)) containing MG-132 (10 μM). Next, only the supernatant was collected by centrifugation (at 14,000 rpm for 10 minutes) at 4° C., and the proteins were separated by SDS-polyacrylamide gel electrophoresis (SDS-PAGE). The separated proteins were transferred to a polyvinylidene difluoride membrane (PVDF membrane), reacted in 5% nonfat dry milk for 3 hours, and then reacted with primary antibodies at 4° C. for 12 hours. After 12 hours, the proteins further reacted with secondary antibodies corresponding to the respective primary antibodies. Then, the protein band was examined, according to the manufacturer's protocol, using an ECL kit. […]

[2] = test system: HULEC-5a cells; assay: Effect upon TGF-β1 treatment in Hulec-5a cells (western blot of protein levels); type: cell-based, human
Procedure: 1.2×10^6 Hulec-5a cells, derived from pulmonary vessels, were suspended in a medium, dispensed into a 100-mm plate, and incubated for 24 hours. After 24 hours of incubation, each plate was treated with TGF-β1 (10 ng/ml) alone or in combination with novel flavone derivative I at varying concentrations or a predetermined concentration and/or nintedanib (NIDB), a therapeutic drug for idiopathic pulmonary fibrosis and interstitial lung disease. After 3, 24, and 48 hours of incubation, the cells were lysed with RIPA lysis buffer ([50 mM Tris]-Cl (pH, 7.4), 1% NP-40, 150 mM NaCl, 1 mM EDTA, and 1 mM phenylmethylsulfonyl fluoride (PMSF)) containing MG-132 (10 μM, proteasome inhibitor, protect the HIF-1α subunit from proteasome degradation). Next, only the supernatant was collected by centrifugation (at 13,000 rpm for 7 minutes) at 4° C., and the proteins were separated by SDS-polyacrylamide gel electrophoresis (SDS-PAGE). The separated proteins were transferred to a polyvinylidene difluoride membrane (PVDF membrane), reacted in 5% nonfat dry milk for 2 hours, and then reacted with primary antibodies at 4° C. overnight. After overnight, the proteins further reacted with secondary antibodies corresponding to the respective primary antibodies. Then, the protein band was examined, according to the manufacturer's protocol, using an ECL kit.
The effect of novel flavone derivative II upon TGF-β1 treatment in Hulec-5a cells was evaluated in the same manner as in Example 1 above.
The effect of novel flavone derivative III upon TGF-β1 treatment in Hulec-5a cells was evaluated in the same manner as in Example 1 above.

[3] = test system: HULEC-5a cells; assay: Effect of bleomycin treatment on Hulec-5a cells (western blot of protein levels); type: cell-based, human; conditions: Hulec-5a cells treated with bleomycin, FIG. 14
Procedure: 1.2×10^6 Hulec-5a cells, derived from pulmonary vessels, were suspended in a medium, dispensed into a 100-mm plate, and incubated for 24 hours. After 24 hours, each plate was treated with BLM alone or in combination with novel flavone derivative I at varying concentrations or a predetermined concentration. After a predetermined period of incubation, the cells were lysed with RIPA lysis buffer ([50 mM Tris]-Cl (pH, 7.4), 1% NP-40, 150 mM NaCl, 1 mM EDTA, and 1 mM phenylmethylsulfonyl fluoride (PMSF)) containing MG-132 (10 μM). Next, only the supernatant was collected by centrifugation (at 14,000 rpm for 10 minutes) at 4° C., and the proteins were separated by SDS-polyacrylamide gel electrophoresis (SDS-PAGE). The separated proteins were transferred to a polyvinylidene difluoride membrane (PVDF membrane), reacted in 5% nonfat dry milk for 3 hours, and then reacted with primary antibodies at 4° C. for 12 hours. After 12 hours, the proteins further reacted with secondary antibodies corresponding to the respective primary antibodies. Then, the protein band was examined, according to the manufacturer's protocol, using an ECL kit.

[4] = test system: A549 cells; assay: Effect upon TGF-β1 treatment in A549 cells (western blot of protein levels); type: cell-based
Procedure: 3.5*10^5 A549 cells, derived from lung cancer, were suspended in a medium, dispensed into a 60-mm plate, and incubated for 48 hours. After 48 hours of incubation, each plate was treated with TGF-β1 (10 ng/ml) alone or in combination with novel flavone derivative I at varying concentrations or a predetermined concentration and/or nintedanib (NIDB), a therapeutic drug for idiopathic pulmonary fibrosis and interstitial lung disease as a positive control. […] Next, only the supernatant was collected by centrifugation (at 14,000 rpm for 10 minutes) at 4° C., and the proteins were separated by SDS-polyacrylamide gel electrophoresis (SDS-PAGE). The separated proteins were transferred to a polyvinylidene difluoride membrane (PVDF membrane), reacted in 5% nonfat dry milk for 3 hours, and then reacted with primary antibodies at 4° C. for 12 hours. After 12 hours, the proteins further reacted with secondary antibodies corresponding to the respective primary antibodies. Then, the protein band was examined, according to the manufacturer's protocol, using an ECL kit.
The effect of novel flavone derivative II upon TGF-β1 treatment in A549 cells was evaluated in the same manner as in Example 1 above. FIGS. 20 and 21 show the results thereof.
The effect of novel flavone derivative III upon TGF-β1 treatment in A549 cells was evaluated in the same manner as in Example 1 above.

COc1ccc(-c2c(-c3ccc(O)c(O)c3)oc3cc(OC)c(OC)cc3c2=O)cc1 [novel flavone derivative I, 2-(3,4-dihydroxyphenyl)-6,7-dimethoxy-3-(4-methoxyphenyl)-4H-chromen-4-one]
decreased: levels of pulmonary fibrosis-related factors (fibronectin, α-SMA, HIF-1α, NOX1, NOX2, and NOX4), increased by BLM treatment [1] | levels of fibrosis-related factors (Fibronectin, α-SMA, NOX1, NOX2, and NOX4), increased by TGF-β1 treatment ([2]; HULEC-5a cells, 10 ng/mL TGF-β1 and/or 5 μM compound, 3, 24, and 48 hours, FIG. 9) | levels of pulmonary fibrosis-related factors (fibronectin, α-SMA, HIF-1α, NOX2, and NOX4) [3] | levels of fibronectin, HIF-1α, NOX2, NOX4, vimentin, p-EGFR, EGFR, and p-AKT proteins, increased by TGF-β1 treatment ([4]; 10 ng/mL TGF-β1 and 5 μM compound, 24 hours, FIG. 7) | levels of fibronectin, HIF-1α, and p-c-Src proteins, increased by TGF-β1 treatment ([4]; 10 ng/mL TGF-β1 and 5 μM compound, 48 hours, FIG. 8)

COc1ccc(-c2c(-c3ccc(O)c(OC)c3)oc3cc(OC)c(OC)cc3c2=O)cc1 [novel flavone derivative II, 2-(4-hydroxy-3-methoxyphenyl)-6,7-dimethoxy-3-(4-methoxyphenyl)-4H-chromen-4-one]
decreased: levels of fibronectin, COL4, α-SMA, and HIF-1α, increased by TGF-β1 treatment ([2]; Hulec-5a cells, TGF-β1 treatment, FIG. 22) | levels of Col3, Col4, fibronectin, and NOX4 proteins, increased by TGF-β treatment ([4]; 10 ng/mL TGF-β1 and compound, 24 hours, FIGS. 20 and 21)
